Data taken from publication PMC5679629, “Flavin-containing monooxygenase 3 (FMO3) role in busulphan metabolic pathway” (PLoS ONE, 2017).

Key:
[1] = THT kinetics in mice (alone or after PTU pretreatment); format: in vivo, Male C57BL/6N mice; details: THT-treated mice (8.8mg/kg i.p.) pretreated with PTU 3mg/kg i.p. for 3 days
Experimental: Standard laboratory chow and water ad libitum was introduced.
THT was also prepared as a 2mM solution in DMSO and the dose given was equimolar to the Bu treatment (i.e. 100μmol/kg or 8.8 mg/kg). […] At the appropriate time points (10min, 30min, 1h, 2h, 4h, 6h and 8h), mice (three mice at each time point) were anesthetized using 2% isoflurane and the blood samples were collected by heart puncture. Mice were euthanized by cervical dislocation. Plasma was separated and stored at -20°C.
A similar experiment was performed in a second group of mice, after 3 days of i.p. injections with the FMO3-inhibitor, Phenylthiourea (PTU, Sigma-Aldrich, Stockholm, Sweden, S1 Fig). PTU (3mg/kg) was dissolved in DMSO and diluted with physiological NaCl solution and then injected into the mice once daily followed by Bu or THT injections on the 4th day.
Briefly, 500 μL of plasma were diluted with 500 μL of water. Fifty microliters of the internal standard (1,5-bis(methanesulfonoxy)pentane; 38.5 μM) were added, followed by the addition of 1 mL of sodium iodide (8M, Merck, Darmstadt, Germany) and 400μL of n-heptane (Merck, Darmstadt, Germany). […] The organic phase was analyzed by GC-MS [18]. THT was quantified as described previously and the method was validated for use with mouse plasma before measuring both Bu and THT [19, 20].

[2] = tested on: pooled human liver microsomes (HLM); experiment: THT disappearance on incubation with pooled human liver microsomes, with heat-inactivation of FMO3 or carbon monoxide inactivation of CYPs; format: in vitro ADME
Experimental: THT (Sigma-Aldrich, Stockholm, Sweden) was received as a liquid solution and stock solutions were prepared daily and diluted in 50mM potassium phosphate buffer pH 7.4.
Linearity of the reactions with time, enzyme and THT concentrations was determined before measuring apparent enzyme kinetic constants; pooled human liver microsomes (HLM) (Cypex, Dundee, UK) were incubated at different enzyme concentrations with a range of THT concentrations (10–500μM).
Time curves were performed by incubating microsomes in 50mM potassium phosphate buffer (pH 7.4) in a total volume of 200μL. The reaction was started by the addition of NADPH (Sigma-Aldrich, St. Louis, USA) to a final concentration of 1mM and terminated by adding one volume of ice cold dicholormethane (Fluka, Seeze, Germany).
The relative contribution of CYPs and FMO3 in the metabolism of THT was studied by heat-inactivation of FMO3 in some incubations and, in other incubations, CYP enzymes in HLM were inactivated by carbon monoxide (AGA Gas, Enköping, Sweden) bubbling.
Incubations were performed in triplicate and negative controls (excluding NADPH, microsomes, THT or by terminating the incubations before the addition of NADPH) were run in parallel.
To measure THT and the secondary metabolite, sulfolane, the reactions were terminated by adding dichloromethane. Samples (180μL) were added to 10μM nicotine (20μL, Merck, Hoherbrunn, Germany), used as an internal standard, before extraction. The matrix was extracted by liquid-liquid extraction with dichloromethane (equal volumes, 200μL) after 30 sec of high speed vortexing. After extraction and centrifugation at 16000 g for 10 min, the organic phase was transferred into GC-MS tubes. […] Samples (180μL) were added to 10 μM of 3-methylsulfolane (20μL, TCI, Tokyo, Japan), used as an internal standard. […]
Concentrations of THT and its metabolites were measured using GC-MS [18] after validation for use with microsomal incubations according to the international guidelines.

[3] = Busulphan kinetics in mice (alone, after PTU pretreatment, or with high-dose THT); details: mice injected with Bu and PTU
Experimental: Male C57BL/6N mice (6–8 weeks old) were purchased from Charles River (Cologne, Germany). The mice were allowed to acclimatize to the surroundings for 2 weeks with a 12h dark/12h light cycle and randomized for treatment. Standard laboratory chow and water ad libitum was introduced.
To study Bu and THT kinetics, Bu (Sigma-Aldrich, Steinheim, Germany) was administered i.p. (25mg/kg or 100μmol/kg) as a 2mM solution in DMSO (Sigma-Aldrich, Stockholm, Sweden) [21]. THT was also prepared as a 2mM solution in DMSO and the dose given was equimolar to the Bu treatment (i.e. 100μmol/kg or 8.8 mg/kg). Upon injection, samples were diluted with physiological NaCl solution to a final DMSO concentration of 10% in the dosing solution. At the appropriate time points (10min, 30min, 1h, 2h, 4h, 6h and 8h), mice (three mice at each time point) were anesthetized using 2% isoflurane and the blood samples were collected by heart puncture. Mice were euthanized by cervical dislocation. Plasma was separated and stored at -20°C.
PTU (3mg/kg) was dissolved in DMSO and diluted with physiological NaCl solution and then injected into the mice once daily followed by Bu or THT injections on the 4th day. The mice were euthanized and plasma samples prepared as in the previous experiment.
To detect the effect of high THT concentrations on Bu metabolism, a third group of mice was injected with both Bu (100μmol/kg) and a high dose of THT (17.6mg/kg or 200μmol/kg) and samples prepared as described previously. All experiments including negative controls (mice injected with 10% DMSO in NaCl solution) and mice injected with PTU alone were performed in triplicates.
To quantify Bu, samples were extracted according to the method reported previously by Hassan et al. [24]. Briefly, 500 μL of plasma were diluted with 500 μL of water. Fifty microliters of the internal standard (1,5-bis(methanesulfonoxy)pentane; 38.5 μM) were added, followed by the addition of 1 mL of sodium iodide (8M, Merck, Darmstadt, Germany) and 400μL of n-heptane (Merck, Darmstadt, Germany). The tubes were placed under magnetic stirring in a water bath (70°C) for 45 min. During the reaction, busulphan and 1,5-bis(methanesulfonoxy)pentane were converted to 1,4-diiodobutane and 1,5-diiodopentane respectively and subsequently extracted with n-heptane [25]. The conversion of busulphan and 1,5-bis(methanesulfonoxy)pentane to 1,4-diiodobutane and 1,5-diiodopentane was over 90% [24]. The organic phase was analyzed by GC-MS [18]. THT was quantified as described previously and the method was validated for use with mouse plasma before measuring both Bu and THT [19, 20].
Kinetic parameters from in vivo studies were estimated using WinNonLin software (standard edition, version 2.0), while Microsoft Excel and SigmaPlot software (version 12.5, Systat software, Inc.) were utilized for in vitro kinetics.

C1CCSC1 [THT, tetrahydrothiophene]
THT concentrations versus THT only [1]: significantly (P<0.05, t-test) higher | THT disappearance on incubation with HLM [2]: rapid THT disappearance | reduction of THT disappearance by CYP inhibition by carbon monoxide [2]: 9% | reduction of THT disappearance by inactivation of FMO3 (heat treatment) ([2]; within 60 min): 44% | THT concentrations versus Bu alone [3]: significantly (P<0.05, t-test) increased
